Source: patent US20250011368A1, “DLL3 TARGETING PEPTIDES AND CONSTRUCTS THEREOF” (MARIANA ONCOLOGY INC., priority 2023, published 2025)
Numbered stars: 1 amine (or outer) side, 2 acyl side, 3 side chain; on linkers, the order of the positions; unused ones are H or OH. Bridge positions count the residues as written; N and C are the ends. Square brackets hold non-standard residues; d marks the D form. Peptide text beside a SMILES is read from it. * marks the point of attachment. ξ: configuration not given here. TtdsdLys(DOTA)NH2 = NC(=O)[C@@H](CCCCNC(=O)CN1CCN(CC(=O)O)CCN(CC(=O)O)CCN(CC(=O)O)CC1)NC(=O)CCC(=O)NCCCOCCOCCOCCCN*; DOTA = O=C(O)CN1CCN(CC(=O)O)CCN(CC(=O)*)CCN(CC(=O)O)CC1; Phe(4-CF3) = N[C@@H](Cc1ccc(C(F)(F)F)cc1)C(=O)O; Trp(5-F) = N[C@@H](Cc1c[nH]c2ccc(F)cc12)C(=O)O; Phe(2-CF3) = N[C@@H](Cc1ccccc1C(F)(F)F)C(=O)O; Trp(7-aza) = N[C@@H](Cc1c[nH]c2ncccc12)C(=O)O; X5 = O=C([C@H](CC1C=NC2N=CC=CC12)N[*:1])[*:2]; Pro(trans-4-F) = O=C(O)[C@@H]1C[C@@H](F)CN1; 2Nal = N[C@@H](Cc1ccc2ccccc2c1)C(=O)O; Gly(4-THP) = N[C@H](C(=O)O)C1CCOCC1; Nva(3-Et) = CCC(CC)[C@H](N)C(=O)O; ξThr(3R) = C[C@@H](O)C(N)C(=O)O; Cha = N[C@@H](CC1CCCCC1)C(=O)O; Cba = N[C@@H](CC1CCC1)C(=O)O; Chg = N[C@H](C(=O)O)C1CCCCC1; Tle = CC(C)(C)[C@H](N)C(=O)O; Nle = CCCC[C@H](N)C(=O)O; CH2 = C([*:1])[*:2]

What follows are molecules tested against T1, human DLL3 (Homo sapiens, UniProt Q9NYJ7) (assay: Affinity determination by Surface Plasmon Resonance (SPR)). Details: 25° C., biotinylated human DLL3 immobilized on streptavidin sensor chip, 1:1 binding model; read-out: SPR KD.
T1 sequence (Q9NYJ7 27-618): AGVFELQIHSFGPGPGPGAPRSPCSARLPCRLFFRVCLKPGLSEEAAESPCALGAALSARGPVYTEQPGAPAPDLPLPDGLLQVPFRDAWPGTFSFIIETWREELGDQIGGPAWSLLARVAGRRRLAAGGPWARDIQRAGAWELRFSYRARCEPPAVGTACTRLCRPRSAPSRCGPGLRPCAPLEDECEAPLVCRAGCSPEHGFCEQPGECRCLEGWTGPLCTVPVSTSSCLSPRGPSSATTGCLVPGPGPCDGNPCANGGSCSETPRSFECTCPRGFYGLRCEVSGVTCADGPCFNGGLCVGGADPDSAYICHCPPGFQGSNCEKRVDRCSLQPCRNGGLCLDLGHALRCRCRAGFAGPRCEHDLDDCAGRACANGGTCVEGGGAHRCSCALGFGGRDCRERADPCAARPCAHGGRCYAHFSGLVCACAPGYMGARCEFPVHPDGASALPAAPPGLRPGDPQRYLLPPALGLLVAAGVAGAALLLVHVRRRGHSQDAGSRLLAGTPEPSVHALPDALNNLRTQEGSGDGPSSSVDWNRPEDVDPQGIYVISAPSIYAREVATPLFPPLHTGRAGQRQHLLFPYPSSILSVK
Assay type: binding
Summary of the method: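 Kinetic and affinity constants were derived by fitting sensorgrams to a 1:1 binding model. Graded compound concentrations flowed at 100 μL/minute in 20 mM phosphate running buffer with 2% DMSO over streptavidin-immobilized biotinylated human DLL3, reference-subtracted.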
With `CC(=O)N[C@@H](Cc1c[nH]c2ccc(F)cc12)C(=O)N[C@H](C(=O)N[C@H](C(=O)N[C@H]1CSSC[C@@H](C(=O)N[C@@H](CC2C=NC3N=CC=CC23)C(=O)N2C[C@H](F)C[C@H]2C(=O)N[C@H](CCCCNC(=O)CN2CCN(CC(=O)O)CCN(CC(=O)O)CCN(CC(=O)O)CC2)C(N)=O)NC(=O)[C@H](CC(=O)O)NC(=O)[C@H](Cc2cnc[nH]2)NC(=O)[C@H](Cc2ccc(C(F)(F)F)cc2)NC(=O)[C@H](CC(N)=O)NC(=O)[C@H](CC(N)=O)NC1=O)C(C)(C)C)[C@@H](C)O` (stereo partly drawn) [compound 145, Ac-(5Fluoro-W)-T-(Tbg)-C(3)-N-N-(4CF3-F)-H-D-C(3)-(7Aza-W)-(trans4Fluoro-P)-[D-Lys(DOTA)]-NH2] (Ac-[Trp(5-F)]T[Tle]CNN[Phe(4-CF3)]HDC[X5][Pro(trans-4-F)][dK](DOTA)-NH2; disulfide 4-10) the Kd was 1 to 10 nM.
Molecule `CC(=O)N[C@@H](Cc1c[nH]c2ccc(F)cc12)C(=O)N[C@H](C(=O)N[C@H](C(=O)N[C@H]1CSSC[C@@H](C(=O)N[C@@H](Cc2c[nH]c3ncccc23)C(=O)N2C[C@H](F)C[C@H]2C(=O)N[C@H](CCCCNC(=O)CN2CCN(CC(=O)O)CCN(CC(=O)O)CCN(CC(=O)O)CC2)C(N)=O)NC(=O)[C@H](CC(=O)O)NC(=O)[C@H](Cc2cnc[nH]2)NC(=O)[C@H](Cc2ccc(C(F)(F)F)cc2)NC(=O)[C@H](CC(N)=O)NC(=O)[C@H](CC(N)=O)NC1=O)C1CCOCC1)[C@@H](C)O` [compound 147, Ac-(5Fluoro-W)-T-(THPG)-C(3)-N-N-(4CF3-F)-H-D-C(3)-(7Aza-W)-(trans4Fluoro-P)-[D-Lys(DOTA)]-NH2] (Ac-[Trp(5-F)]T[Gly(4-THP)]CNN[Phe(4-CF3)]HDC[Trp(7-aza)][Pro(trans-4-F)][dK](DOTA)-NH2; disulfide 4-10) has a Kd of 1 to 10 nM.
With `CCCC[C@H](NC(=O)[C@@H](NC(=O)[C@H](Cc1c[nH]c2ccc(F)cc12)NC(C)=O)[C@@H](C)O)C(=O)N[C@H]1CSSC[C@@H](C(=O)N[C@@H](Cc2c[nH]c3ncccc23)C(=O)N2C[C@H](F)C[C@H]2C(=O)N[C@H](CCCCNC(=O)CN2CCN(CC(=O)O)CCN(CC(=O)O)CCN(CC(=O)O)CC2)C(N)=O)NC(=O)[C@H](CC(=O)O)NC(=O)[C@H](Cc2c[nH]cn2)NC(=O)[C@H](Cc2ccc(C(F)(F)F)cc2)NC(=O)[C@H](CC(N)=O)NC(=O)[C@H](CC(N)=O)NC1=O` [compound 148, Ac-(5Fluoro-W)-T-(Nle)-C(3)-N-N-(4CF3-F)-H-D-C(3)-(7Aza-W)-(trans4Fluoro-P)-[D-Lys(DOTA)]-NH2] (Ac-[Trp(5-F)]T[Nle]CNN[Phe(4-CF3)]HDC[Trp(7-aza)][Pro(trans-4-F)][dK](DOTA)-NH2; disulfide 4-10) the Kd was 1 to 10 nM.
`CC(=O)N[C@@H](Cc1c[nH]c2ccc(F)cc12)C(=O)N[C@H](C(=O)N[C@@H](CC1CCCCC1)C(=O)N[C@H]1CSSC[C@@H](C(=O)N[C@@H](Cc2c[nH]c3ncccc23)C(=O)N2C[C@H](F)C[C@H]2C(=O)N[C@H](CCCCNC(=O)CN2CCN(CC(=O)O)CCN(CC(=O)O)CCN(CC(=O)O)CC2)C(N)=O)NC(=O)[C@H](CC(=O)O)NC(=O)[C@H](Cc2cnc[nH]2)NC(=O)[C@H](Cc2ccc(C(F)(F)F)cc2)NC(=O)[C@H](CC(N)=O)NC(=O)[C@H](CC(N)=O)NC1=O)[C@@H](C)O` [compound 149, Ac-(5Fluoro-W)-T-(CHA)-C(3)-N-N-(4CF3-F)-H-D-C(3)-(7Aza-W)-(trans4Fluoro-P)-[D-Lys(DOTA)]-NH2] (Ac-[Trp(5-F)]T[Cha]CNN[Phe(4-CF3)]HDC[Trp(7-aza)][Pro(trans-4-F)][dK](DOTA)-NH2; disulfide 4-10) was tested, and the Kd was 1 to 10 nM.
Molecule `CC(=O)N[C@@H](Cc1c[nH]c2ccc(F)cc12)C(=O)N[C@H](C(=O)N[C@@H](CC1CCC1)C(=O)N[C@H]1CSSC[C@@H](C(=O)N[C@@H](Cc2c[nH]c3ncccc23)C(=O)N2C[C@H](F)C[C@H]2C(=O)N[C@H](CCCCNC(=O)CN2CCN(CC(=O)O)CCN(CC(=O)O)CCN(CC(=O)O)CC2)C(N)=O)NC(=O)[C@H](CC(=O)O)NC(=O)[C@H](Cc2cnc[nH]2)NC(=O)[C@H](Cc2ccc(C(F)(F)F)cc2)NC(=O)[C@H](CC(N)=O)NC(=O)[C@H](CC(N)=O)NC1=O)[C@@H](C)O` [compound 150, Ac-(5Fluoro-W)-T-(CBA)-C(3)-N-N-(4CF3-F)-H-D-C(3)-(7Aza-W)-(trans4Fluoro-P)-[D-Lys(DOTA)]-NH2] (Ac-[Trp(5-F)]T[Cba]CNN[Phe(4-CF3)]HDC[Trp(7-aza)][Pro(trans-4-F)][dK](DOTA)-NH2; disulfide 4-10) has a Kd of 1 to 10 nM.
`CC(=O)N[C@@H](Cc1c[nH]c2ccc(F)cc12)C(=O)N[C@H](C(=O)N[C@H](C(=O)N[C@H]1CSSC[C@@H](C(=O)N[C@@H](Cc2c[nH]c3ncccc23)C(=O)N2C[C@H](F)C[C@H]2C(=O)N[C@H](CCCCNC(=O)CN2CCN(CC(=O)O)CCN(CC(=O)O)CCN(CC(=O)O)CC2)C(N)=O)NC(=O)[C@H](CC(=O)O)NC(=O)[C@H](Cc2cnc[nH]2)NC(=O)[C@H](Cc2ccc(C(F)(F)F)cc2)NC(=O)[C@H](CC(N)=O)NC(=O)[C@H](CC(N)=O)NC1=O)C1CCCCC1)[C@@H](C)O` [compound 151, Ac-(5Fluoro-W)-T-(Chg)-C(3)-N-N-(4CF3-F)-H-D-C(3)-(7Aza-W)-(trans4Fluoro-P)-[D-Lys(DOTA)]-NH2] (Ac-[Trp(5-F)]T[Chg]CNN[Phe(4-CF3)]HDC[Trp(7-aza)][Pro(trans-4-F)][dK](DOTA)-NH2; disulfide 4-10) was tested, and the Kd was 1 to 10 nM.
Molecule `CC(=O)N[C@@H](Cc1c[nH]c2ccc(F)cc12)C(=O)N[C@H](C(=O)N[C@@H](Cc1ccccc1C(F)(F)F)C(=O)N[C@H]1CSSC[C@@H](C(=O)N[C@@H](Cc2c[nH]c3ncccc23)C(=O)N2C[C@H](F)C[C@H]2C(=O)N[C@H](CCCCNC(=O)CN2CCN(CC(=O)O)CCN(CC(=O)O)CCN(CC(=O)O)CC2)C(N)=O)NC(=O)[C@H](CC(=O)O)NC(=O)[C@H](Cc2cnc[nH]2)NC(=O)[C@H](Cc2ccc(C(F)(F)F)cc2)NC(=O)[C@H](CC(N)=O)NC(=O)[C@H](CC(N)=O)NC1=O)[C@@H](C)O` [compound 152, Ac-(5Fluoro-W)-T-(2CF3-F)-C(3)-N-N-(4CF3-F)-H-D-C(3)-(7Aza-W)-(trans4Fluoro-P)-[D-Lys(DOTA)]-NH2] (Ac-[Trp(5-F)]T[Phe(2-CF3)]CNN[Phe(4-CF3)]HDC[Trp(7-aza)][Pro(trans-4-F)][dK](DOTA)-NH2; disulfide 4-10) has a Kd of 1 to 10 nM.
`CC[C@H](C)[C@H](NC(=O)[C@@H](NC(=O)[C@H](Cc1c[nH]c2ccccc12)NC(C)=O)[C@@H](C)O)C(=O)N[C@H]1CSCSC[C@@H](C(=O)N[C@@H](Cc2c[nH]c3ccccc23)C(=O)N2CCC[C@H]2C(=O)N[C@H](CCCCNC(=O)CN2CCN(CC(=O)O)CCN(CC(=O)O)CCN(CC(=O)O)CC2)C(N)=O)NC(=O)[C@H](CC(=O)O)NC(=O)[C@H](Cc2cnc[nH]2)NC(=O)[C@H](Cc2c[nH]c3ccccc23)NC(=O)[C@H](CC(N)=O)NC(=O)[C@H](CC(N)=O)NC1=O` [compound 164, Ac-WTI-C(1)-NNWHD-C(1)-WP-[D-Lys(DOTA)]-NH2] (Ac-WTICNNWHDCWP[dK](DOTA)-NH2; linker 4-10 via CH2) showed a Kd of 1 to 10 nM.
Work on `CC[C@H](C)[C@H](NC(=O)[C@@H](NC(=O)[C@H](Cc1c[nH]c2ccccc12)NC(C)=O)[C@@H](C)O)C(=O)N[C@H]1CSSC[C@@H](C(=O)N[C@@H](Cc2c[nH]c3ccccc23)C(=O)N2CCC[C@H]2C(=O)NCC(=O)NCC(=O)NCCCOCCOCCOCCCNC(=O)CCC(=O)N[C@H](CCCCNC(=O)CN2CCN(CC(=O)O)CCN(CC(=O)O)CCN(CC(=O)O)CC2)C(N)=O)NC(=O)[C@H](CC(=O)O)NC(=O)[C@H](Cc2cnc[nH]2)NC(=O)[C@H](Cc2ccc3ccccc3c2)NC(=O)[C@H](CC(N)=O)NC(=O)[C@H](CC(N)=O)NC1=O` [compound 167, Ac-W-T-I-C(3)-N-N-(2Nal)-H-D-C(3)-W-P-G-G-TTDS-[D-Lys(DOTA)]-NH2] (Ac-WTICNN[2Nal]HDCWPGG-{TtdsdLys(DOTA)NH2}; disulfide 4-10) yielded a Kd of less than 1 nM.
`CCC(CC)[C@H](NC(=O)C(NC(=O)[C@H](Cc1c[nH]c2ccccc12)NC(C)=O)[C@@H](C)O)C(=O)N[C@H]1CSSC[C@@H](C(=O)N[C@@H](Cc2c[nH]c3ncccc23)C(=O)N2CCC[C@H]2C(=O)N[C@H](CCCCNC(=O)CN2CCN(CC(=O)O)CCN(CC(=O)O)CCN(CC(=O)O)CC2)C(N)=O)NC(=O)[C@H](CC(=O)O)NC(=O)[C@H](Cc2cnc[nH]2)NC(=O)[C@H](Cc2ccc3ccccc3c2)NC(=O)[C@H](CC(N)=O)NC(=O)[C@H](CC(N)=O)NC1=O` (stereo partly drawn) [compound 193, Ac-W-T-(Env)-C(3)-N-N-(2Nal)-H-D-C(3)-(7-Aza-W)-P-[D-Lys(DOTA)]-NH2] (Ac-W[ξThr(3R)][Nva(3-Et)]CNN[2Nal]HDC[Trp(7-aza)]P[dK](DOTA)-NH2; disulfide 4-10) showed a Kd of less than 1 nM.
With `CC(=O)N[C@@H](Cc1c[nH]c2ccccc12)C(=O)NC(C(=O)N[C@H](C(=O)N[C@H]1CSSC[C@@H](C(=O)N[C@@H](Cc2c[nH]c3ncccc23)C(=O)N2CCC[C@H]2C(=O)N[C@H](CCCCNC(=O)CN2CCN(CC(=O)O)CCN(CC(=O)O)CCN(CC(=O)O)CC2)C(N)=O)NC(=O)[C@H](CC(=O)O)NC(=O)[C@H](Cc2cnc[nH]2)NC(=O)[C@H](Cc2ccc3ccccc3c2)NC(=O)[C@H](CC(N)=O)NC(=O)[C@H](C)NC1=O)C1CCCCC1)[C@@H](C)O` (stereo partly drawn) [compound 194, Ac-W-T-(Chg)-C(3)-A-N-(2Nal)-H-D-C(3)-(7-Aza-W)-P-[D-Lys(DOTA)]-NH2] (Ac-W[ξThr(3R)][Chg]CAN[2Nal]HDC[Trp(7-aza)]P[dK](DOTA)-NH2; disulfide 4-10) the Kd was less than 1 nM.
